Data from ChEMBL document CHEMBL5608184, “Discovery and mechanistic insights into thieno[3,2-d]pyrimidine and heterocyclic fused pyrimidines inhibitors targeting tubulin for cancer therapy” (Eur J Med Chem, 2024).
The source made the active and inactive calls. The rule behind the calls is not given here.

Experiments:
A2780 = assay: Antiproliferative activity against human A2780 cells incubated for 48 hrs by CCK8 assay; format: functional, cell-based; conditions: A2780, 48 h
SK-OV-3 [1] = assay: Antiproliferative activity against human SK-OV-3 cells incubated for 48 hrs by CCK8 assay; format: functional, cell-based; conditions: SK-OV-3, 48 h
HCC827 = assay: Antiproliferative activity against human HCC827 cells incubated for 48 hrs by CCK8 assay; format: functional, cell-based; conditions: HCC827, 48 h
A549 = assay: cells; conditions: Homo sapiens, A549, 48 h
Description: Antiproliferative activity against human A549 cells incubated for 48 hrs by CCK8 assay

Tubulin = assay: Binding affinity to CM5-chip immobilized tubulin (unknown origin) assessed as dissociation constant by SPR analysis; format: protein-complex assay, Homo sapiens
Tubulin (Homo sapiens) = Tubulin (Homo sapiens) (UniProt P68371+Q9H4B7+P0DPH7+P68366+Q13509+Q71U36+P04350+Q3ZCM7+P07437+P68363+Q9BQE3+Q6PEY2+Q13885+Q9BVA1+Q9BUF5); assay: Inhibition of tubulin polymerization in human SK-OV-3 assessed as disruption of microtubule organization at 2 nM incubated for 24 hrs by immunofluorescence based analysis; format: cell-based
[2] = Antiproliferative activity against Paclitaxel-resistant human A2780 cells incubated for 48 hrs by CCK8 assay; format: functional, cell-based; conditions: Paclitaxel-resistant A2780, 48 h
Sus scrofa = species on record: Sus scrofa; assay: Inhibition of porcine brain tubulin polymerization at 10 uM measured for 60 min by fluorescence based assay
SK-OV-3 [3] = assay: Induction of cell cycle arrest at G2/M phase in human SK-OV-3 cells at 5 nM incubated for 24 hrs by PI staining based flow cytometry (reference value: 29.73 %); format: functional
SK-OV-3 [4] = assay: Induction of cell cycle arrest at G2/M phase in human SK-OV-3 cells at 5 nM incubated for 24 hrs by PI staining based flow cytometry (reference value: 30.13 %); format: functional
SK-OV-3 [5] = assay: Induction of apoptosis in human SK-OV-3 cells assessed as viable cells at 5 nM incubated for 48 hrs by Annexin V-APC-A/7-AAD-A staining based flow cytometry (reference value: 97.17 %); format: functional; conditions: read-out: Activity
SK-OV-3 [6] = assay: Induction of apoptosis in human SK-OV-3 cells assessed as early apoptotic cells at 5 nM incubated for 48 hrs by Annexin V-APC-A/7-AAD-A staining based flow cytometry (reference value: 1.12 %); format: functional
SK-OV-3 [7] = assay: Induction of apoptosis in human SK-OV-3 cells assessed as late apoptotic cells at 5 nM incubated for 48 hrs by Annexin V-APC-A/7-AAD-A staining based flow cytometry (reference value: 1.22 %); format: functional
SK-OV-3 [8] = assay: Induction of apoptosis in human SK-OV-3 cells assessed as necrotic cells at 5 nM incubated for 48 hrs by Annexin V-APC-A/7-AAD-A staining based flow cytometry (reference value: 0.48 %); format: functional
SK-OV-3 [9] = assay: Induction of apoptosis in human SK-OV-3 cells assessed as viable cells at 5 nM incubated for 48 hrs by Annexin V-APC-A/7-AAD-A staining based flow cytometry (reference value: 97.50 %); format: functional; conditions: read-out: Activity
SK-OV-3 [10] = assay: Induction of apoptosis in human SK-OV-3 cells assessed as early apoptotic cells at 5 nM incubated for 48 hrs by Annexin V-APC-A/7-AAD-A staining based flow cytometry (reference value: 1.10 %); format: functional
SK-OV-3 [11] = assay: Induction of apoptosis in human SK-OV-3 cells assessed as late apoptotic cells at 5 nM incubated for 48 hrs by Annexin V-APC-A/7-AAD-A staining based flow cytometry (reference value: 1.20 %); format: functional
SK-OV-3 [12] = assay: Induction of apoptosis in human SK-OV-3 cells assessed as necrotic cells at 5 nM incubated for 48 hrs by Annexin V-APC-A/7-AAD-A staining based flow cytometry (reference value: 0.21 %); format: functional

| SMILES | IC50 (A2780) [nM] | IC50 (SK-OV-3 [1]) [nM] | IC50 (HCC827) [nM] | IC50 (A549) [nM] | also measured |
| --- | --- | --- | --- | --- | --- |
| COc1ccc(N(C)c2nc(Cl)nc3ccoc23)cc1 | 6.28 | 2.86 | 4.64 | 9.05 | – |
| COc1ccc(N(C)c2nc(Cl)nc3ccsc23)cc1F | 3.16 | 2.06 | 1.65 | 2.57 | – |
| COc1ccc(N(C)c2nc(N3CCN(C)CC3)nc3ccsc23)cc1 | > 1000 | > 1000 | > 1000 | > 1000 | – |
| COc1ccc(N(C)c2nc(Cl)nc3ccsc23)cc1 | 7.26 | 5.83 | 8.55 | 8.63 | Kd (Tubulin): 29700 nM |
| COc1ccc(N(C)c2nc(Cl)nc3ccccc23)cc1 | 1.08 | 0.78 | 1.25 | 1.28 | – |
| CC(=O)O[C@H]1C(=O)[C@@]2(C)[C@H]([C@H](OC(=O)c3ccccc3)[C@]3(O)C[C@H](OC(=O)[C@H](O)[C@@H](NC(=O)c4ccccc4)c4ccccc4)C(C)=C1C3(C)C)[C@]1(OC(C)=O)CO[C@@H]1C[C@@H]2O [PACLITAXEL] | 1.31 | 1.19 | 1.25 | 3.12 | inhibition (Tubulin (Homo sapiens)): inactive; IC50 [2]: 3820 nM; inhibition (Sus scrofa): inactive |
| COc1cccc(N(C)c2nc(Cl)nc3ccsc23)c1 | 225 | 46.9 | 140 | 388 | – |
| CN(c1ccc(F)cc1)c1nc(Cl)nc2ccsc12 | > 1000 | > 1000 | > 1000 | > 1000 | – |
| COc1ccc(Nc2nc(Cl)nc3ccsc23)cc1 | > 1000 | > 1000 | > 1000 | > 1000 | – |
| CN(c1ccc2c(ccn2C)c1)c1nc(Cl)nc2ccsc12 | 1.56 | 1.22 | 1.56 | 1.72 | – |
| COc1ccc(N(C)c2nc(Cl)nc3cc[nH]c23)cc1 | 22.6 | 9.02 | 18.6 | 20.4 | – |
| COc1ccc(N(C)c2nc(Cl)nc3c2ccn3C)cc1 | 73.4 | 23.2 | 54 | 120 | – |
| COc1ccc(N(C)c2nc(NC3CCCCC3)nc3ccsc23)cc1 | > 1000 | > 1000 | > 1000 | > 1000 | – |
| COc1ccc(N(C)c2nc(NC3CCC3)nc3ccsc23)cc1 | 119 | 91.9 | 113 | 211 | – |
| COc1ccc(N(C)c2nc(Cl)nc3[nH]ccc23)cc1 | 225 | 39.2 | 225 | 588 | – |
| COc1ccc(N(C)c2nc(Cl)nc3sccc23)cc1 | 5.44 | 4.95 | 5.16 | 6.32 | – |
| COc1ccc(N(C)c2nc(NC3CC3)nc3ccsc23)cc1 | 30.4 | 25.3 | 19.8 | 73.2 | – |
| COc1ccc(Sc2nc(Cl)nc3ccsc23)cc1 | 31.1 | 38 | 29.4 | 78.1 | – |
| COc1ccc(N(C)c2nc(C)nc3ccsc23)cc1 | 15.7 | 6.22 | 9.02 | 14.8 | – |
| COc1ccc2c(c1)CCCN2c1nc(Cl)nc2ccsc12 | 4.68 | 2.72 | 2.25 | 5.13 | – |

| SMILES | IC50 (A2780) [nM] | IC50 (SK-OV-3 [1]) [nM] | IC50 (HCC827) [nM] | IC50 (A549) [nM] | also measured |
| --- | --- | --- | --- | --- | --- |
| COc1ccc(N(C)c2nc(N3CCC3)nc3ccsc23)cc1 | 307 | 58.7 | 228 | 699 | – |
| COc1ccc(N(C)c2nc(N(C)C)nc3ccsc23)cc1 | 225 | 50.7 | 130 | 285 | – |
| COc1c(F)cc(N(C)c2nc(Cl)nc3ccsc23)cc1F | 119 | 31.6 | 52 | 238 | – |
| COc1ccc(N(C)c2nc(N3CCCC3)nc3ccsc23)cc1 | > 1000 | > 1000 | > 1000 | > 1000 | – |
| COc1ccc(N(C)c2nc(N)nc3ccsc23)cc1 | 61.1 | 34.9 | 21 | 207 | – |
| CCNc1nc(N(C)c2ccc(OC)cc2)c2sccc2n1 | 50.9 | 52.9 | 31.8 | 160 | – |
| CN(c1ccc(C(F)(F)F)cc1)c1nc(Cl)nc2ccsc12 | > 1000 | > 1000 | > 1000 | > 1000 | – |
| CN(c1ccc(C(F)F)cc1)c1nc(Cl)nc2ccsc12 | > 1000 | > 1000 | > 1000 | > 1000 | – |
| Cc1nn(C)c2ccc(N(C)c3nc(Cl)nc4ccsc34)cc12 | 28 | 14.1 | 19.8 | 27.6 | – |
| CN(c1ccccc1)c1nc(Cl)nc2ccsc12 | > 1000 | > 1000 | > 1000 | > 1000 | – |
| COc1cc(OC)cc(N(C)c2nc(Cl)nc3ccsc23)c1 | 651 | 265 | 431 | 785 | – |
| COc1cc2c(c(OC)c1OC)-c1ccc(OC)c(=O)cc1[C@@H](NC(C)=O)CC2 [COLCHICINE] | 12.4 | 10.2 | 9.31 | – | IC50 [2]: 500 nM; Activity (SK-OV-3 [3]): 34.38%; Activity (SK-OV-3 [4]): 34.8%; viability at 0.005 µM (SK-OV-3 [5]): 96.2%; Activity (SK-OV-3 [6]): 1.47%; Activity (SK-OV-3 [7]): 2.01%; Activity (SK-OV-3 [8]): 0.28%; viability at 0.005 µM (SK-OV-3 [9]): 95.9%; Activity (SK-OV-3 [10]): 2.15%; Activity (SK-OV-3 [11]): 1.53%; Activity (SK-OV-3 [12]): 0.38% |
| COc1ccc2c(c1)CCN2c1nc(Cl)nc2ccsc12 | > 1000 | > 1000 | > 1000 | > 1000 | – |
| COc1ccc(N(C)c2ncnc3ccsc23)cc1 | 77.8 | 44.9 | 49.2 | 88.1 | – |
| COc1ccc(Oc2nc(Cl)nc3ccsc23)cc1 | > 1000 | > 1000 | > 1000 | > 1000 | – |
| COc1ccc(/C=C\c2cc(OC)c(OC)c(OC)c2)cc1O [COMBRETASTATIN A4] | 2.15 | 1.42 | 2.25 | 2.57 | – |
| COc1cc(N(C)c2nc(Cl)nc3ccsc23)cc(OC)c1OC | > 1000 | > 1000 | > 1000 | > 1000 | – |
| CN(c1ccc2c(c1)OCO2)c1nc(Cl)nc2ccsc12 | 410 | 172 | 308 | 634 | – |
| COc1ccc(N(C)c2nc(NC3CCCC3)nc3ccsc23)cc1 | > 1000 | 741 | > 1000 | > 1000 | – |
| CN(c1ccc(OC(F)(F)F)cc1)c1nc(Cl)nc2ccsc12 | 393 | 101 | 346 | 601 | – |
